Marks after values point to notes of the source that are not given here.
Molecular target: T1, human GPR119 receptor (Homo sapiens, UniProt Q8TDV5, S329A/T327A)
T1 construct: N-terminal leader […]; expressed in transfected cells
T1 sequence (Q8TDV5 with tags, fused parts or gaps T327A/S329A): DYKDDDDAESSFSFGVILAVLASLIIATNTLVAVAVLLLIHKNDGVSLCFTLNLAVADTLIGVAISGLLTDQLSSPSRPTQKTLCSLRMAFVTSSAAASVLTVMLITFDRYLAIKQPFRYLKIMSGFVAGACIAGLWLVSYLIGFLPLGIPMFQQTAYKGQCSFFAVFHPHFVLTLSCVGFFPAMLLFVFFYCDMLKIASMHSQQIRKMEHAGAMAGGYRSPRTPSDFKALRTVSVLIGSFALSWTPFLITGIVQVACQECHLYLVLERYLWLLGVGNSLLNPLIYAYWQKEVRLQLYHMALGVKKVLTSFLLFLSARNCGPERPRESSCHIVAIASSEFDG
Assay: cAMP assay (LANCE cAMP-384 Kit), cAMP accumulation in HEK293 cells stably expressing mutant human GPR119 receptor
Type: cell-based
Settings: cAMP accumulation; HEK293 cells stably expressing a mutant form of the human GPR119 receptor; 20 min at 37° C.
Protocol: Quantitative detection of cAMP accumulation from cells expressing human GPR119 receptor was achieved using Perkin Elmer's LANCE cAMP-384 Kit (Cat#AD0264) according to the manufacturer's protocol. Briefly, HEK293 cells stably expressing a mutant form of the human GPR119 receptor (Methionine 1 replaced with the amino acid sequence […], and T327 & S329 changed to alanines) were grown to 50-70% confluency in cell culture media (DMEM, 10% heat inactivated Fetal Bovine Serum, 50 I.U./mL penicillin, 50 μg/mL streptomycin, 10 mM HEPES, 20 μg/mL G418 Sulfate). On the day of the assay, GPR119 stable HEK293 cells were lifted from the tissue culture plate and 1000 cells/well were incubated along with various concentrations of test compounds for 20 min at 37° C. Detection Buffer (50 mM HEPES, 10 mM calcium chloride, 0.35% Triton X-100, 1 mg/mL BSA) containing cAMP-specific antibody was then added to all wells and allowed to equilibrate in the dark for 10 minutes at room temperature. Upon equilibration, Detection Buffer containing europium-labeled cAMP tracer complex was added to all wells and allowed to react for 1 hour at room temperature. After 1 hour, bound europium-labeled cAMP tracer was measured using a Perkin Elmer ViewLux. The quantity of cAMP generated in each well was derived from a standard curve.
For some compounds for which no EC50 value could be determined, the efficacy is provided at a single concentration (10 μM) yielding % stimulation values.

Question: For `CCC(C)OC(=O)N1CCC(Oc2cc(N3CCc4cc(S(C)(=O)=O)ccc43)ncn2)CC1` (stereo not shown) [Compound 5-3], which EC50 is on record?
Answer: 0.035 µM

Question: For `CS(=O)(=O)c1ccc2c(c1)CCN2c1cc(OC2CCN(C(=O)OC(CF)CF)CC2)ncn1` [Compound 5-5], which EC50 is on record?
Answer: 0.242 µM

Question: With `CS(=O)(=O)c1ccc2c(c1)CCN2c1cc(OC2CCN(C(=O)OC3CCC3)CC2)ncn1` [Compound 5-1, 4-[6-(5-Methanesulfonyl-2,3-dihydro-indol-1-yl)-pyrimidin-4-yloxy]-piperidine-1-carboxylic acid cyclobutyl ester] as the molecule, how does the EC50 read?
Answer: 0.024 µM

Question: Which EC50 does the source give for `CS(=O)(=O)c1ccc2c(c1)CCN2c1cc(OC2CCN(C(=O)OC3CCN(Cc4ccc(F)cc4)C3)CC2)ncn1` (stereo not shown) [Compound 21-3] here?
Answer: 0.335 µM

Question: With `CCC(C)N(c1cc(N2CCc3cc(S(C)(=O)=O)ccc32)ncn1)C1CCN(C(=O)OC(C)(C)C)CC1` (stereo not shown) [Compound 16-4] as the molecule, how does the EC50 read?
Answer: 0.095 µM

Question: Which EC50 does the source give for `CN(c1cc(N2CCc3cc(S(C)(=O)=O)ccc32)ncn1)C1CCN(C(=O)OC(C)(C)C)CC1` [Compound 16-1, 4-{[6-(5-Methanesulfonyl-2,3-dihydro-indol-1-yl)-pyrimidin-4-yl]-methyl-amino}-piperidine-1-carboxylic acid tert-butyl ester] here?
Answer: 0.051 µM

Question: For `CC(C)COC(=O)N1CCC(Oc2cc(N3CCc4cc(S(C)(=O)=O)ccc43)ncn2)CC1` [Compound 4-2], which EC50 is on record?
Answer: 0.042 µM

Question: For `CC(C)OC(=O)N1CCC(Oc2ccnc(N3CCc4cc(S(C)(=O)=O)ccc43)c2)CC1` [Compound 10-1, 4-[2-(5-Methanesulfonyl-2,3-dihydro-indol-1-yl)-pyridin-4-yloxy]-piperidine-1-carboxylic acid isopropyl ester], which EC50 is on record?
Answer: 0.588 µM

Question: Which EC50 does the source give for `C=CCN(c1cc(N2CCc3cc(S(C)(=O)=O)ccc32)ncn1)C1CCN(C(=O)OC(C)(C)C)CC1` [Compound 16-5] here?
Answer: 0.023 µM

Question: How did the EC50 turn out when `CCN(c1cc(N2CCc3cc(S(C)(=O)=O)ccc32)ncn1)C1CCN(C(=O)OC(C)(C)C)CC1` [Compound 16-2] was run?
Answer: 0.029 µM

Question: `CC(C)OC(=O)N1CCC(Oc2cc(N3CCc4cc(S(C)(=O)=O)ccc43)ncn2)CC1` [Compound 4-1, 4-[6-(5-Methanesulfonyl-2,3-dihydro-indol-1-yl)-pyrimidin-4-yloxy]-piperidine-1-carboxylic acid isopropyl ester] was tested. Which EC50 did it give?
Answer: 0.033 µM

Question: With `Cc1c(OC2CCN(C(=O)OC(C)C)CC2)ncnc1N1CCc2ncccc21` [Compound 9-2, 4-[6-(2,3-Dihydro-pyrrolo[3,2-b]pyridin-1-yl)-5-methyl-pyrimidin-4-yloxy]-piperidine-1-carboxylic acid isopropyl ester] as the molecule, how does the EC50 read?
Answer: 0.312 µM

Question: `CC(C)OC(=O)N1CCC(N(C)c2cc(N3CCc4cc(S(C)(=O)=O)ccc43)ncn2)CC1` [Compound 7-1, 4-[6-(5-Methanesulfonyl-2,3-dihydro-indol-1-yl)-pyrimidin-4-yl-methylamino]-piperidine-1-carboxylic acid isopropyl ester] was tested. Which EC50 did it give?
Answer: 0.069 µM

Question: With `CC(C)(C)OC(=O)N1CCC(Oc2ncnc(N3CCc4cc(S(C)(=O)=O)ccc43)c2F)CC1` [Compound 13-1, 4-[5-Fluoro-6-(5-methanesulfonyl-2,3-dihydro-indol-1-yl)-pyrimidin-4-yloxy]-piperidine-1-carboxylic acid tert-butyl ester] as the molecule, how does the EC50 read?
Answer: 0.382 µM

Question: How did the EC50 turn out when `COCC(C)OC(=O)N1CCC(Oc2cc(N3CCc4cc(S(C)(=O)=O)ccc43)ncn2)CC1` (stereo not shown) [Compound 5-4] was run?
Answer: 0.1 µM

Question: Which EC50 does the source give for `CS(=O)(=O)c1ccc2c(c1)CCN2c1cc(OC2CCN(C(=O)OC3CCN(Cc4cc(F)cc(F)c4)C3)CC2)ncn1` (stereo not shown) [Compound 21-5] here?
Answer: 0.308 µM

Question: `COc1c(OC2CCN(C(=O)OC(C)C)CC2)ncnc1N1CCc2cc(S(C)(=O)=O)ccc21` [Compound 8-1, 4-[6-(5-Methanesulfonyl-2,3-dihydro-indol-1-yl)-5-methoxy-pyrimidin-4-yloxy]-piperidine-1-carboxylic acid isopropyl ester] was tested. Which EC50 did it give?
Answer: 0.201 µM

Question: For `CC(C)(C)OC(=O)N1CCC(Oc2cc(N3CCc4nc(Cl)ccc43)ncn2)CC1` [Compound 20-1, 4-[6-(5-Chloro-2,3-dihydro-pyrrolo[3,2-b]pyridin-1-yl)-pyrimidin-4-yloxy]-piperidine-1-carboxylic acid tert-butyl ester], which EC50 is on record?
Answer: 0.751 µM

Question: How did the EC50 turn out when `CS(=O)(=O)c1ccc2c(c1)CCN2c1cc(OC2CCN(C(=O)OC3CCN(Cc4cccc(F)c4)C3)CC2)ncn1` (stereo not shown) [Compound 21-2] was run?
Answer: 0.278 µM

Question: How did the EC50 turn out when `COCN(c1cc(N2CCc3cc(S(C)(=O)=O)ccc32)ncn1)C1CCN(C(=O)OC(C)(C)C)CC1` [Compound 16-3] was run?
Answer: 0.906 µM

Question: For `CC(C)OC(=O)N1CCC(Nc2cc(N3CCc4cc(S(C)(=O)=O)ccc43)ncn2)CC1` [Compound 6-1, 4-[6-(5-Methanesulfonyl-2,3-dihydro-indol-1-yl)-pyrimidin-4-ylamino]-piperidine-1-carboxylic acid isopropyl ester], which EC50 is on record?
Answer: 0.611 µM

Question: Which EC50 does the source give for `CS(=O)(=O)c1ccc2c(c1)CCN2c1cc(OC2CCN(C(=O)OCC3CC3)CC2)ncn1` [Compound 5-2] here?
Answer: 0.023 µM

Question: With `CS(=O)(=O)c1ccc2c(c1)CCN2c1cc(OC2CCN(C(=O)OC3CCN(Cc4cccc(F)c4F)C3)CC2)ncn1` (stereo not shown) [Compound 21-4] as the molecule, how does the EC50 read?
Answer: 0.343 µM

Same assay, conditions: single concentration 10 μM; given where no EC50 value could be determined; HEK293 cells expressing mutant human GPR119

Question: With `CC(C)(C)OC(=O)N1CC(Oc2cc(N3CCc4cc(S(C)(=O)=O)ccc43)ncn2)C1` [Compound 15-1, 3-[6-(5-Methanesulfonyl-2,3-dihydro-indol-1-yl)-pyrimidin-4-yloxy]-azetidine-1-carboxylic acid tert-butyl ester] as the molecule, how does the “% stimulation at 10 μM” value read?
Answer: 22%

Question: For `CS(=O)(=O)c1ccc2c(c1)CCN2c1cc(OC2CCN(C(=O)OC3CCN(Cc4c(F)cccc4F)C3)CC2)ncn1` (stereo not shown) [Compound 21-6], which “% stimulation at 10 μM” value is on record?
Answer: 84%*

Question: How did the “% stimulation at 10 μM” value turn out when `CC(C)(C)OC(=O)N1CC[C@@H](Oc2cc(N3CCc4cc(S(C)(=O)=O)ccc43)ncn2)C1` [Compound 15-2, (R)-3-[6-(5-Methanesulfonyl-2,3-dihydro-indol-1-yl)-pyrimidin-4-yloxy]-pyrrolidine-1-carboxylic acid tert-butyl ester] was run?
Answer: 26%

Question: For `CS(=O)(=O)c1ccc2c(c1)CCN2c1cc(OC2CCN(C(=O)OC3CCN(Cc4ccccc4F)C3)CC2)ncn1` (stereo not shown) [Compound 21-1, 4-[6-(5-Methanesulfonyl-2,3-dihydro-indol-1-yl)-pyrimidin-4-yloxy]-piperidine-1-carboxylic acid 1-(2-fluoro-benzyl)-pyrrolidin-3-yl ester], which “% stimulation at 10 μM” value is on record?
Answer: 78%*

Question: With `CC(C)OC(=O)N1CCC(Oc2cc(N3CCc4cc(S(C)(=O)=O)ccc43)ncc2C#N)CC1` [Compound 24-1, 4-[5-Cyano-2-(5-methanesulfonyl-2,3-dihydro-indol-1-yl)-pyridin-4-yloxy]-piperidine-1-carboxylic acid isopropyl ester] as the molecule, how does the “% stimulation at 10 μM” value read?
Answer: 54%

— patent US8481731B2, “Compounds, pharmaceutical composition and methods relating thereto” (Boehringer Ingelheim International GmbH, priority 2009, dated 2013)
